Reference: patent US20140200215A1, “LYSOPHOSPHATIDIC ACID RECEPTOR ANTAGONISTS” (INTERMUNE, INC., priority 2013, published 2014)

Key:
[1] = test system: primary fibroblasts (including lung, dermal), HFL-1, 3T3 and CHO cells expressing LPA1R; test: LPA1 migration assay (Oris cell migration); format: cell-based; conditions: inhibition of cell migration in response to chemoattractant (LPA, serum)
Description: Migration of primary fibroblasts (including lung, dermal), HFL-1, 3T3 and CHO cells expressing LPA1R were monitored using the Oris™ assay (Platypus Technologies, Madison, Wis.). These cells were dye (Cell Tracker Green™) loaded and serum starved for 12-24 hrs. In response to chemoattractants such as LPA and serum, the cells migrated inward in to the exclusion (detection) zone. After fixing, fluorescent cells in the detection zone were counted using a high content reader. The ability of LPA1 antagonists to inhibit cell migration is quantified by plotting cell number vs. compound concentration and curve fitting the resulting dose-response curve to a 4 parameter logistic function.

Human LPA1 = Human LPA1 (Homo sapiens, UniProt Q92633); test: Beta-Arrestin based assay for human LPA1R antagonists (PathHunter); format: cell-based; conditions: CHO cells expressing ProLink tagged human LPA1R; antagonist mode, 0.5 micromolar LPA
Method: Beta-Arrestin Based Assays for Human LPA1R Antagonists and Agonists
A CHO cell line stably expressing the ProLink™ tagged human LPA1R was obtained from DiscoverX Inc, Fremont, Calif. In this system, β-Arrestin was fused to an N-terminal deletion mutant of β-galactosidase (termed the enzyme acceptor or EA), the human LPA1R was fused to a smaller (42 amino acids) weakly complementing fragment termed ProLink™. […] Cell handling and assays were performed according to protocols specified in the PathHunter® assays kits (DiscoverX, Fremont, Calif.). Assays were performed in quadruplicate in white 384 well plates. End point luminescence data were plotted and fit to a 4 parameter logistic function to obtain IC50 values. For antagonist assays, an […] concentration of agonist (LPA) equal to 0.5 micromolar was used.

Human LPA1, sequence (Q92633 whole entry): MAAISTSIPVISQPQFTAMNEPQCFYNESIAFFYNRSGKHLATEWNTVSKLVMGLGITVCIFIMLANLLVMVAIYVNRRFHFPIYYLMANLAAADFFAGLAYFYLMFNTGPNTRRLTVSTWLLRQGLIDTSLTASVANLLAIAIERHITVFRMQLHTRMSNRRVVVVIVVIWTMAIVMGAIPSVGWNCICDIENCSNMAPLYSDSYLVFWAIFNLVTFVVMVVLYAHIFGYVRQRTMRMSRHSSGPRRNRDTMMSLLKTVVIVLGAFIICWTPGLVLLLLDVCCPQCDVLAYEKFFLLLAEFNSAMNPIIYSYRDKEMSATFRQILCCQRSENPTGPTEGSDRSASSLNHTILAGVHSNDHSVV

Row | EC50 (Human LPA1) [nM] | SMILES | EC50 [1] [nM]
1 | 50 to 500 | Cc1noc(C#Cc2ccc3cc(CC4(C(=O)O)CC4)ccc3c2)c1NC(=O)O[C@H](C)c1ccccc1 [IT065] | > 500
2 | > 500 | Cc1nsc(-c2ccc(-c3ccc(C4(C(=O)O)CC4)cc3)cc2)c1NC(=O)OC(c1ccccc1)C(F)(F)F (single isomer, unassigned) [IT079] | > 500
3 | > 500 | Cc1nsc(-c2cc3cc4sc(C(=O)O)cc4cc3s2)c1NC(=O)O[C@H](C)c1ccccc1 [IT080] | 
4 | < 50 | C[C@@H](OC(=O)Nc1c(-c2ccc(-c3ccc(C4(C(=O)O)CC4)cc3)cc2)cnn1C(F)(F)F)c1ccccc1 [IT094] | 50 to 500
5 | > 500 | C[C@@H](OC(=O)Nc1ncsc1C#Cc1cc2sc(C3(C(=O)O)CC3)cc2s1)c1ccccc1 [IT101] | 
6 | > 500 | Cc1nsc(-c2ccc(N3CCC(CC(=O)O)CC3)cc2)c1NC(=O)O[C@H](C)c1ccccc1 [IT068] | > 500
7 | > 500 | C[C@@H](OC(=O)Nc1c(C#Cc2cc3sc(C4(NS(C)(=O)=O)CC4)cc3s2)cnn1C)c1ccccc1 [IT089] | > 500
8 | < 50 | CCOC(=O)C1(c2cc3sc(C#Cc4cnn(C)c4NC(=O)O[C@H](C)c4ccccc4)cc3s2)CC1 [IT085] | > 500
9 | < 50 | COCC(COC(=O)C1(c2cc3sc(C#Cc4cnn(C)c4NC(=O)O[C@H](C)c4ccccc4)cc3s2)CC1)OC (stereo partly shown) [IT 100] | 
10 | < 50 | Cc1noc(C#Cc2nc3sc(C4(C(=O)O)CC4)cc3s2)c1NC(=O)O[C@H](C)c1ccccc1 [IT 102] | 
11 | > 500 | Cc1noc(C#Cc2ccc(-c3ccc(C(=O)O)cc3)cc2)c1NC(=O)O[C@H](C)c1ccccc1 [IT081] | > 500
12 | < 50 | C[C@@H](OC(=O)Nc1c(-c2cc(F)c(-c3ccc(C4(C(=O)O)CC4)cc3)cc2F)oc2cnccc12)c1ccccc1 [IT096] | 50 to 500
13 | < 50 | C[C@@H](OC(=O)Nc1c(C(F)(F)F)nnn1-c1ccc(-c2ccc(C3(C(=O)O)CC3)cc2)cc1)c1ccccc1 [IT072] | > 500
14 | 50 to 500 | C[C@@H](OC(=O)Nc1c(C#Cc2cc3sc(C4(C(=O)OCCN5CCOCC5)CC4)cc3s2)cnn1C)c1ccccc1 [IT082] | 50 to 500
15 | 50 to 500 | C[C@@H](OC(=O)Nc1c(C#Cc2cc3sc(C4(C(=O)O)CC4)cc3s2)oc2ccccc12)c1ccccc1 [IT074] | > 500
16 | < 50 | C[C@@H](OC(=O)Nc1c(C#Cc2cc3sc(C4(C(=O)OCC(=O)N(C)C)CC4)cc3s2)cnn1C)c1ccccc1 [IT090] | 50 to 500
17 | 50 to 500 | Cc1nsc(-c2ccc(C3CCC(C4(C(=O)O)CC4)CC3)cc2)c1NC(=O)O[C@H](C)c1ccccc1 (stereo partly shown) [IT091] | > 500
18 | > 500 | Cc1noc(-c2ccc(-c3ccc(C4(C(=O)O)CC4)cc3)cc2)c1NC(=O)OC(C)c1cccc2ocnc12 (single isomer, unassigned) [IT076] | 
19 | 50 to 500 | Cc1noc(-c2ccc(-c3ccc(C4(C(=O)O)CC4)cc3)cc2)c1NC(=O)OC(C)c1cccc2ocnc12 (single isomer, unassigned) [IT077] | 
20 | < 50 | C[C@@H](OC(=O)Nc1c(C#Cc2nc3sc(C4(C(=O)O)CC4)cc3s2)cnn1C)c1ccccc1 [IT095] | < 50
21 | < 50 | C[C@@H](OC(=O)Nc1c(-c2cc(F)c(-c3ccc(C4(C(=O)O)CC4)cc3)cc2F)oc2ccccc12)c1ccccc1 [IT075] | 50 to 500
22 | < 50 | C[C@@H](OC(=O)Nc1c(C#Cc2sc3cc(C4(C(=O)O)CC4)sc3c2C(F)(F)F)cnn1C)c1ccccc1 [IT 103] | 

The next lines start with the compound.

Row | SMILES | EC50 (Human LPA1) [nM] | EC50 [1] [nM]
23 | C[C@@H](OC(=O)Nc1c(-c2ccc(-c3ccc(C4(C(=O)O)CC4)cc3)cc2)nc2n1CCNC2)c1ccccc1 [IT019] | > 500 | > 500
24 | C[C@@H](OC(=O)Nc1c(-c2cc(F)c(-c3ccc(C4(C(=O)O)CC4)cc3)cc2F)nn2ccccc12)c1ccccc1 [IT049] | < 50 | 50 to 500
25 | Cc1nsc(-c2cc(F)c(-c3ccc(C4(C(=O)O)CCOCC4)cc3)cc2F)c1NC(=O)O[C@H](C)c1ccccc1 [IT042] | < 50 | 50 to 500
26 | Cc1nsc(-c2ccc3cc(C4CCC(C(=O)O)CC4)ccc3c2)c1NC(=O)O[C@H](C)c1ccccc1 (stereo partly shown) [IT053] | > 500 | > 500
27 | Cc1nsc(C2CCC(c3ccc(C4(C(=O)O)CC4)cc3)CC2)c1NC(=O)O[C@H](C)c1ccccc1 (single isomer, unassigned) [IT060] | > 500 | > 500
28 | Cc1noc(-c2ccc(-c3ccc4c(c3)CCCC4C(=O)O)cc2)c1NC(=O)O[C@H](C)c1ccccc1 (single isomer, unassigned) [IT038] |  | > 500
29 | Cc1nsc(-c2ccc([C@H]3CC[C@H](C(=O)O)CC3)cc2)c1NC(=O)O[C@H](C)c1ccccc1 [IT008] | > 500 | > 500
30 | Cc1noc(C#Cc2ccc(CC3(C(=O)O)CC3)cc2)c1NC(=O)O[C@H](C)c1ccccc1 [IT001] | 50 to 500 | 50 to 500
31 | Cc1noc(C#Cc2ccc(/C=C/C(=O)O)cc2)c1NC(=O)O[C@H](C)c1ccccc1 [IT013] | > 500 | > 500
32 | Cc1nsc(-c2cc(F)c(-c3ccc(C4(C(=O)O)CCOCC4)cc3)cc2F)c1NC(=O)OCc1ccccc1 [IT045] | > 500 | > 500
33 | Cc1nsc(C#Cc2ccc3c(c2)CCC(C(=O)O)C3)c1NC(=O)O[C@H](C)c1ccccc1 (single isomer, unassigned) [IT062] | > 500 | > 500
34 | Cc1noc(-c2ccc(-c3ccc(C4(C(=O)O)CC4)cc3)cc2)c1NC(=O)O[C@@H]1CCCc2ccccc21 (single isomer, unassigned) [IT057] | > 500 | > 500
35 | Cc1noc(C#Cc2ccc(C3(CC(=O)O)CC3)cc2)c1NC(=O)O[C@H](C)c1ccccc1 [IT002] | 50 to 500 | 50 to 500
36 | C[C@@H](OC(=O)Nc1c(-c2ccc(-c3ccc(C4(C(=O)O)CC4)cc3)cc2)nn2ccccc12)c1ccccc1 [IT052] |  | > 500
37 | Cc1nsc(C2CCC(c3ccc(C4(C(=O)O)CC4)cc3)CC2)c1NC(=O)O[C@H](C)c1ccccc1 (single isomer, unassigned) [IT059] | 50 to 500 | > 500
38 | Cc1noc(-c2ccc(-c3ccc4c(c3)CCCC4C(=O)O)cc2)c1NC(=O)O[C@H](C)c1ccccc1 (single isomer, unassigned) [IT039] |  | > 500
39 | Cc1nsc(-c2ccc(-c3cc4sc(C(=O)O)cc4s3)cc2)c1NC(=O)O[C@H](C)c1ccccc1 [IT025] | > 500 | > 500
40 | C[C@@H](OC(=O)Nc1c(-c2ccc(C#CC3(C(=O)O)CC3)cc2)nnn1C)c1ccccc1 [IT036] | > 500 | > 500
41 | Cc1nsc(C#Cc2ccc3c(c2)CCC(C(=O)O)C3)c1NC(=O)O[C@H](C)c1ccccc1 (single isomer, unassigned) [IT063] | > 500 | > 500
42 | C[C@@H](OC(=O)Nc1c(-c2cc(F)c(-c3ccc(C4(C(=O)O)CCOCC4)cc3)cc2F)nnn1C)c1ccccc1 [IT055] | 50 to 500 | 50 to 500
43 | Cc1noc(-c2ccc(-c3ccc4c(c3)OCCC4C(=O)O)cc2)c1NC(=O)O[C@H](C)c1ccccc1 (stereo partly shown) [IT037] | 50 to 500 | 
44 | Cc1noc(C#Cc2ccc(CC3(C(=O)O)CC3)cc2)c1NC(=O)O[C@H](C)c1ccccc1 [IT006] | 50 to 500 | 
